{"source": "patent US6828330B2", "about": "“Quinuclidine-substituted hetero-bicyclic aromatic compounds for the treatment of disease” (Pharmacia & Upjohn Company, priority 2001, dated 2004)", "note": "Structures can show the parent of a compound that is named as a salt."}
{"target": "T1, α7 nAChR (Rattus norvegicus, UniProt Q05941)", "T1 construct": "the brains (whole brain minus cerebellum) are dissected quickly, weighed and homogenized; from tissue; host or cells: rat brain (whole brain minus cerebellum) membranes", "T1 sequence (Q05941 23-502)": "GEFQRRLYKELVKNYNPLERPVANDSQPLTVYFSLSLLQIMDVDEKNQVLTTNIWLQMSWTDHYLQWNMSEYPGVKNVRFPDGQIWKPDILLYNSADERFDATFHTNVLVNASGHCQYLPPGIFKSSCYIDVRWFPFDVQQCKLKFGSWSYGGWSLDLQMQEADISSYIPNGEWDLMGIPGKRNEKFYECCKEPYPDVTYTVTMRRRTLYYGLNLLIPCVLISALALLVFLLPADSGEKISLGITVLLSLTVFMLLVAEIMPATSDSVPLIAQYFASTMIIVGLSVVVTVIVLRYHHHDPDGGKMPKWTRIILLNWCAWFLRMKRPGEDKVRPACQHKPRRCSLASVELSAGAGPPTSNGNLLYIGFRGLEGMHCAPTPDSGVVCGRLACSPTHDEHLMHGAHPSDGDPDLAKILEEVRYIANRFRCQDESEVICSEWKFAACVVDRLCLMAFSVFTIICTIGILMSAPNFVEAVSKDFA", "assay": "[3H]-MLA competition binding assay in rat brain membranes", "conditions": "inhibition of [3H]-MLA binding (3.0 to 4.0 nM), rat brain homogenate (whole brain minus cerebellum), 1 hr at 25° C, Cheng-Prusoff", "experimental": "Materials and Methods for Identifying Binding Constants\nMembrane Preparation. Male Sprague-Dawley rats (300-350 g) are sacrificed by decapitation and the brains (whole brain minus cerebellum) are dissected quickly, weighed and homogenized in 9 volumes/g wet weight of ice-cold 0.32M sucrose using a rotating pestle on setting 50 (10 up and down strokes). The homogenate is centrifuged at 1,000×g for 10 minutes at 4° C. The supernatant is collected and centrifuged at 20,000×g for 20 minutes at 4° C. The resulting pellet is resuspended to a protein concentration of 1-8 mg/mL. Aliquots of 5 mL homogenate are frozen at −80° C. until needed for the assay. On the day of the assay, aliquots are thawed at room temperature and diluted with Kreb's −20 mM Hepes buffer pH 7.0 (at room temperature) containing 4.16 mM NaHCO3, 0.44 mM KH2PO4, 127 mM NaCl, 5.36 mM KCl, 1.26 mM CaCl2, and 0.98 mM MgCl2, so that 25-150 μg protein are added per test tube. Proteins are determined by the Bradford method (Bradford, M. M., Anal. Biochem., 72, 248-254, 1976) using bovine serum albumin as the standard.\nBinding Assay. For saturation studies, 0.4 mL homogenate are added to test tubes containing buffer and various concentrations of radioligand, and are incubated in a final volume of 0.5 mL for 1 hr at 25° C. Nonspecific binding was determined in tissues incubated in parallel in the presence of 0.05 ml MLA for a final concentration of 1 μM MLA, added before the radioligand. In competition studies, drugs are added in increasing concentrations to the test tubes before addition of 0.05 ml [^3H]-MLA for a final concentration of 3.0 to 4.0 nM [^3H]-MLA. The incubations are terminated by rapid vacuum filtration through Whatman GF/B glass filter paper mounted on a 48 well Brandel cell harvester. Filters are pre-soaked in 50 mM Tris HCl pH 7.0-0.05% polyethylenimine. The filters are rapidly washed two times with 5 mL aliquots of cold 0.9% saline and then counted for radioactivity by liquid scintillation spectrometry.\nData Analysis. In competition binding studies, the inhibition constant (Ki) was calculated from the concentration dependent inhibition of [^3H]-MLA binding obtained from non-linear regression fitting program according to the Cheng-Prusoff equation (Cheng, Y. C. and Prussoff, W. H., Biochem. Pharmacol., 22, pp. 3099-3108, 1973). Hill coefficients were obtained using non-linear regression (GraphPad Prism sigmoidal dose-response with variable slope).", "units": {"Ki": "nM"}}
{"compound": "O=C(N[C@H]1CN2CCC1CC2)c1ccc2c(c1)OCO2", "note": "[Example 7, N-((3R)-1-azabicyclo[2.2.2]oct-3-yl)-1,3-benzodioxole-5-carboxamide, 4-methylbenzenesulfonate]", "Ki": 24}
{"compound": "Cc1nc2cc(C(=O)N[C@H]3CN4CCC3CC4)ccc2o1", "note": "[Example 4, N-((3R)1-azabicyclo[2.2.2]oct-3-yl)-2-methyl-1,3-benzoxazole-5-carboxamide.fumarate]", "Ki": 305}
{"compound": "O=C(N[C@H]1CN2CCC1CC2)c1ccc2ncsc2c1", "note": "[Example 5, N-((3R)1-azabicyclo[2.2.2]oct-3-yl)-1,3-benzothiazole-6-carboxamide.fumarate]", "Ki": 30}
{"compound": "C[C@H]1[C@H](NC(=O)c2ccc3ncsc3c2)C2CCN1CC2", "note": "[Example 11, N-[(2S,3R)-2-methyl-1-azabicyclo[2.2.2]oct-3-yl]-1,3-benzothiazole-6-carboxamide hydrochloride]", "Ki": 92}
{"compound": "O=C(N[C@H]1CN2CCC1CC2)c1ccc2c(c1)CCC2", "note": "[Example 6, N-((3R)1-azabicyclo[2.2.2]oct-3-yl)indane-5-carboxamide.fumarate]", "Ki": 110}
{"compound": "O=C(N[C@H]1CN2CCC1CC2)c1ccc2ocnc2c1", "note": "[Example 3, N-((3R)1-azabicyclo[2.2.2]oct-3-yl)-1,3-benzoxazole-5-carboxamide.fumarate]", "Ki": 32}
{"compound": "C[C@H]1[C@H](NC(=O)c2nc3ccccc3s2)C2CCN1CC2", "note": "[Example 1005, N-[(2S,3R)-2-methyl-1-azabicyclo[2.2.2]oct-3-yl]-1,3-benzothiazole-2-carboxamide hydrochloride]", "Ki": 73}
